Experiments:
Type in all cases: cell-based
human spermatozoa [1] = assay: Intracellular calcium [Ca2+]i in fura-2 loaded human spermatozoa; settings: for increase in [Ca2+]i after addition of 1 mM calcium: calcium free media, calcium added after treatment
Experimental: (§1) Calcium measurements and the acrosome reaction were performed on motile spermatozoa isolated after percoll density gradient centrifugation (Supra sperm gradients, (ORIGO)) following the manufacturer's instructions. Briefly, spermatozoa were separated from seminal plasma by centrifugation on a discontinuous percoll gradient using a two-step gradient comprising 2 ml layers of 55% and 80% percoll respectively. Semen was placed on the top of the gradient and centrifuged at 300×g for 25 min. The spermatozoa at the base of the 80% fraction were collected and washed with a 5 ml volume of capacitating medium (CaCl2 1.5 mM, KCl 4.3 mM, NaHCO3 31 mM, HEPES 15 mM, Human Serum Albumin 5 mg/ml, Glucose 4.5 mM, Sodium Pyruvate 0.8 mM, Synthetic Serum Replacement, 0.5 ug/ml human recombinant insulin (Sperm preparation media (ORIGO)) and finally resuspended in capacitating media and used for the following assays of calcium measurements and acrosome reaction. All men were part of the above mentioned ongoing surveillance program of semen quality among young Danish men and included after approval from the local ethical committee (No. H-4-2010-016).
Semen samples were separated by percoll density gradient centrifugation to ensure viable and motile spermatozoa and resuspended in capacitating media for 1.5 hours. Afterwards, loaded with 3 μM of the fluorescent probe (intracellular calcium binding) fura-2/AM (Invitrogen, USA) for 30 min, centrifuged (10 min at 300 g) and washed with Krebs-Ringer buffer (120 mM NaCl, 15 mM NaHCO3, 5 mM KCl, 1 mM CaCl2, 5 mM Na2HPO4, 1 mM MgCl2 pH 7.3). […] Subsequently, 80 μl of the sperm sample was diluted in 920 μl Krebs-Ringer buffer and loaded on polylysine-coated chambers to minimize movement of the spermatozoa (Lab-Tek; Nalge Nunc International, USA). A Zeiss Axiovert 135 microscope equipped with a Zeiss Achrostigmat 40×1.3 NA objective was used to acquire images from the fluorescent probe. Excitation was obtained by a Polychrome Villuminator from Till Photonics (Germany) and images were acquired using a Cool Snap CCD camera (Photometrics, USA) from Robert Scientific (Malaysia). For measurements of [Ca2+]i, the excitation wavelengths were 338 and 380 nm, measuring emission above 510 nm using a cut-off filter. […] After background subtraction, ratio images were formed using MetaFluor software.
All experiments started by using low magnification to ensure visibility of several spermatozoa simultaneously. […] All measurements of [Ca^2+], were based upon evaluation of at least three spermatozoa simultaneously (see exact number in figure legends), and were repeated in at least three separate experiments. We used 10 different semen donors to ensure that all experiments were reproduced on semen samples from at least two different men.

[2] = tested on: zona pellucida (ZP) of human oocytes; assay: Human sperm-zona pellucida interaction (sperm-egg binding) test
From the text: We used the Human sperm-zona pellucida interaction test that is designed to determine the capacity of sperm to interact with the zona pellucida (ZP) of human oocytes and serves thus as a test for evaluating fertility potential of human spermatozoa. The tests provide important diagnostic information about sperm fertilising ability and we used a modified version of the test developed by Liu and Baker (Liu and Baker hum reprod 1999 Defective sperm-zona pellucida interaction: a major cause of failure of fertilization in clinical in-vitro fertilization).
If the oocyte had sperm bound to the ZP from the IVF insemination, these were removed by aspiration using a fine glass pipette with an inner diameter (120 μm) slightly smaller than the oocyte diameter. […] Oocytes with >10 sperm penetrating the ZP were not used. Also degenerate, activated or morphologically abnormal oocytes were not used for the sperm-ZP interaction test. Oocytes were pooled from several patients and used for the test on the same day or kept in the incubator and used within the next 20 days. Between 15-30 oocytes was placed in 1 ml salt solution (storage 2-4 weeks). Salt-stored human oocytes were washed with gamete buffer (COOK) with four changes in 3 hours before they were used for the sperm-egg binding test.
Semen samples from five donors were used. […] The washed sperm pellet was resuspended with sEBSS to a sperm concentration of 2×10^6/ml for the ZP-interaction test. For the assessment of the sperm concentration the samples were diluted following the manufactures instruction and subsequently determined using SP-100 (Chemometec).
For the sperm-ZP interaction tests, either high quality sperm or total sperm sample (2×10^6) in 0.5 ml of medium (+/−1 nM Calcitriol) were incubated with three oocytes for 2 h at 37° C. in 5% CO2 in air. After incubation, the oocytes were transferred to sEBSS and washed by repeated aspiration with a glass pipette (inside diameter approximately 250 μm) to dislodge sperm loosely adhering to the surface of the ZP. Sperm binding to all oocytes was assessed.

human spermatozoa [3] = assay: Sperm motility (ABC) in semen samples exposed to 1,25(OH)2D3
Experimental: The participants produced a semen sample by masturbation. Self-reported information of duration of ejaculation abstinence was obtained. Trained technicians conducted semen analysis and a detailed description of assessment of semen samples has previously been published. Semen volume was estimated by weighing. For sperm motility assessment, duplicates of 10 μl of well-mixed semen were placed on a glass slide, examined on a heating stage kept at 37° C., under a microscope at ×400 magnification, and spermatozoa were classified as progressive motile (WHO class A+B), non-progressive motile (class C) or immotile (class D). The average of the two motility assessments was used. For the assessment of the sperm concentration the samples were diluted in a solution of 0.6 mol/l NaHCO3 and 0.4% (v/v) formaldehyde in distilled water, and subsequently assessed using Bürker-Türk haemocytometer. Only spermatozoa with tails were counted. Finally, smears were prepared, Papanicolaou stained and spermatozoa morphology assessed according to strict criteria (Menkveld et al., 1990).
Semen samples for the in vitro studies were obtained from 40 men from the general population, who were investigated between October 2009 and December 2010. Their semen samples were assessed as described above. […] Motility assessment was conducted in 17 samples (in duplicates) under non-capacitating conditions (in their seminal plasma), and 3 samples were also analyzed in capacitating conditions. 7 consecutively included men were used to investigate a dose-response relationship between VD and sperm motility.

human spermatozoa [4] = assay: Sperm motility of washed spermatozoa with or without percoll gradient centrifugation
human spermatozoa [5] = assay: Acrosome reaction (PSA-FITC staining)
Experimental: as §1
Acrosome status was assessed according to a modified version of the method described by Cross et al. 1986. Motile spermatozoa were isolated by percoll gradient centrifugation, washed twice with 5 ml 0.9% sodium chloride followed by centrifugation at 300×g for 10 min. […] The smear and cytospin were fixed in 96% ethanol for 5 min after air drying, washed in distilled water and stained for minimum 2 hours with Pisum sativum agglutinin labelled with fluorescein isothiocyanate (Sigma Aldrich) in Dulbecco phosphate buffered saline at 4° C. Finally, the slides were washed in distilled water and mounted with Vectrashield (H-1080 Vectar Laboratories) and 200 spermatozoa were counted on each slide using a fluorescence microscope at a magnification of 400×. The mean percentage of acrosome-reacted spermatozoa of the two slides was calculated. When more than half the head of a spermatozoon was brightly and uniformly fluorescent, the acrosome was considered to be intact. Spermatozoa without fluorescence or with a fluorescing band limited to the equatorial segment were considered to be acrosome-reacted. Spermatozoa with a fluorescing band limited to the equatorial segment were named eq-AR. The person assessing the slides was blinded to the treatment of the sample.

[6] = calcium free media with 5 μM EGTA
[7] = 1 nM 1,25(OH)2D3 after pretreatment with nifedipine 10 μM

CC(=O)[C@H]1CC[C@H]2[C@@H]3CCC4=CC(=O)CC[C@]4(C)[C@H]3CC[C@]12C [progesterone]
time until calcium level restored to baseline after initiation of treatment (human spermatozoa [1]; 10 μM progesterone after nifedipine 10 μM pretreatment): 9 min | increase in [Ca2+]i (human spermatozoa [1]; [6]): could not induce an increase | increase in [Ca2+]i after addition of 1 mM calcium (human spermatozoa [1]): comparable to the increase observed in the normal calcium containing Krebs Ringer solution

COc1ccc2c(c1)CC[C@@H]1[C@@H]2CC[C@]2(C)[C@@H](NCCCCCCN3C(=O)C=CC3=O)CC[C@@H]12 [U73122, 1-[6-[[17fi-3-methoxyestra-1,3,5(10)-trien-17-yl]amino]hexyl]-lH-pyrrole-2,5-dione]
increase of baseline [Ca2+]i (human spermatozoa [1]; 10 μM U73122): more than 5 fold | proportion of spermatozoa with increased baseline [Ca2+]i (human spermatozoa [1]; 10 μM U73122): > 80% | effect of PLC inhibition on the effect of progesterone (human spermatozoa [1]; U73122, data not shown): unable to abrogate

C[C@H](CCC(=O)O)C[C@H](C)C[C@H](C)C(=O)/C=C(\O)[C@H](C)C[C@H](C)C/C=C/[C@@H](C)[C@@H](O)[C@@H](C)[C@@H](O)C[C@@H]1CC[C@@](C)([C@H]2CC[C@@](C)([C@@H](C)O)O2)O1 [Ionomycin, ionomycin]
amplitude of calcium response from baseline (human spermatozoa [1]; ionomycin 500 nM, calcium free media with EGTA): < 3 fold

C=C1CC[C@H](O)C/C1=C/C=C1\CCC[C@]2(C)[C@@H]([C@H](C)CCCC(C)(C)O)CC[C@@H]12 [25-OH D3, 25-OH Vitamin D3]
increase in [Ca2+]i (human spermatozoa [1]; 25-OH D3 100 nM): unable to elicit an increase | increase of [Ca2+]i (human spermatozoa [1]; Example 4, 25-OHD3 in the nanomolar range): unable to increase [Ca^2+], substantially | increase of [Ca2+]i (human spermatozoa [1]; Example 4, higher concentrations of 25-OHD3 (1 μM, FIG. 7)): marked but delayed increase

C=C1/C(=C\C=C2/CCC[C@]3(C)[C@@H]([C@H](C)CCCC(C)(C)O)CC[C@@H]23)C[C@@H](O)C[C@@H]1O [1,25(OH)2D3, 1,25-dihydroxycholecalciferol]
mean number of spermatozoa bound to each oocyte ([2]; 1 nM, 5 donors, all pretreatments (vehicle mean 52)): 74 | mean difference in sperm bound versus vehicle ([2]; 1 nM, 5 donors, all pretreatments, p=0.022): 43% | average improvement of sperm-egg binding versus vehicle ([2]; 1 nM, isolated with percoll gradient centrifugation, p=0.027): 28% | difference in sperm-egg binding versus vehicle ([2]; 1 nM, not separated by percoll gradient centrifugation, p=0.139): 60% | increase in sperm-egg binding ([2]; patient 3 (low semen quality), following percoll gradient centrifugation): 33% | change in sperm-egg binding ([2]; patient 3 (low semen quality), not separated by Percoll centrifugation): modest decline | median decrease in sperm motility compared with control (human spermatozoa [3]; 10^-5M): 15% | median increase in sperm motility (human spermatozoa [3]; 10^-9M, p=0.006): 7% | increase in median sperm motility (ABC) (human spermatozoa [3]; 10^-14M to 10^-9M, non-capacitating conditions): 2-7% | increase in mean sperm motility (human spermatozoa [3]; 17 men, 10^-9M for 30 min at room temperature, p=0.010): 2.9% | sperm motility compared with control (human spermatozoa [3]; concentrations above 10^-7M): decreased motility compared with control | change in proportion of motile sperm (human spermatozoa [4]; 1 nM calcitriol, 24 hours at room temperature, with and without percoll, not substantially different from vehicle): modest decrease | motile sperm (human spermatozoa [4]; 1 nM, 60 minutes, isolated by percoll gradient centrifugation (from 62%)): 65% | sperm motility (mean) (human spermatozoa [4]; 1 nM, 60 minutes, no percoll centrifugation (vehicle mean 50)): 48 | time spermatozoa remain motile after treatment (human spermatozoa [4]; Example 5 + FIG. 9): at least 24 hours | median acrosome reacted spermatozoa, VD group (human spermatozoa [5]; 10^-9 M, capacitating conditions (control group 12%)): 21% | median percentage of spermatozoa with an equatorial band (eq. AR) (human spermatozoa [5]; 10^-9 M, capacitating conditions (from 4.7%), p=0.214): 5.3% | average increase in number of acrosome reacted spermatozoa (human spermatozoa [5]; 10^-9 M, capacitating conditions, p=0.024): 6% | acrosome reacted spermatozoa, VD treated (human spermatozoa [5]; non-capacitating conditions (NaCl), 6 men (control 3.7%), not significant): 4.2% | threshold for the all-or-nothing calcium response (human spermatozoa [1]): 10 to 50 µM | time until calcium levels restore back to baseline (human spermatozoa [1]): ≤ 2 min | max amplitude relative to max amplitude elicited by 10 μM progesterone (human spermatozoa [1]; 1 nM 1,25(OH)2D3): 40-80% | maximum amplitude of calcium increase versus baseline calcium level (human spermatozoa [1]; 1 nM 1,25(OH)2D3): 5-10 fold | amplitude of calcium response versus capacitating media (human spermatozoa [1]; 1 nM 1,25(OH)2D3, non-capacitating media, data not shown): lower amplitude | length of repolarisation phase (human spermatozoa [1]; [7]): 4 min | maximum amplitude of calcium increase versus baseline (human spermatozoa [1]; [7]): 7 fold | increase in intracellular calcium ([Ca2+]i) from baseline calcium level (human spermatozoa [1]; 1,25(OH)2D3 100 μM-10 μM (so in the source), motile spermatozoa): 5-10 fold | calcium response (human spermatozoa [1]; 1,25(OH)2D3 added 9 min after initiation of thapsigargin 4 μM): unable to elicit a substantial calcium response | calcium response (human spermatozoa [1]; 1,25(OH)2D3 in spermatozoa exposed to 2 μM U73122): unable to induce a rapid increase | time to max amplitude of the normal rapid calcium response (human spermatozoa [1]; 1,25(OH)2D3 without inhibitor): within one minute | duration of plateau phase of [Ca2+]i (human spermatozoa [1]; <10 nM 1,25(OH)2D3): up to 50 sec | change in Ca2+ concentration (human spermatozoa [1]; Example 4, 1 nM (FIG. 4)): instant increase | start of calcium increase in the neck region (human spermatozoa [1]; after addition of 1,25(OH)2D3): ≤ 5 s | increase in [Ca2+]i (human spermatozoa [1]; [6]): could not induce an increase | calcium response (human spermatozoa [1]; calcium free media without EGTA): marked response | increase in [Ca2+]i after addition of 1 mM calcium (human spermatozoa [1]): comparable to the increase observed in the normal calcium containing Krebs Ringer solution | duration of plateau phase of [Ca2+]i (human spermatozoa [1]; higher 1,25(OH)2D3 concentrations): 50 to 300 s | duration of intracellular calcium increase before return to baseline (human spermatozoa [1]; physiological concentrations): up to 90 seconds | effect of pre-treatment on the calcium effect of progesterone (human spermatozoa [1]; pre-treatment with 1,25(OH)2D3, then 10 μM progesterone): could not be abrogated

C=C1/C(=C\C=C2/CCC[C@]3(C)[C@@H]([C@H](C)CCCC(C)(C)O)CC[C@@H]23)C[C@@H](O)C[C@H]1O [1β,25(OH)2D3, 1β,25-(OH)2D3]
effect on calcium effect of progesterone (human spermatozoa [1]; Example 4): did not abrogate | effect on calcium response to 1,25(OH)2D3 (human spermatozoa [1]; Example 4, non-genomic competitive antagonist): abrogated the response to 1,25(OH)2D3 completely | effect of pretreatment on calcium response to 1,25(OH)2D3 (VD response) (human spermatozoa [1]; pretreatment with 1-40 μM 1β,25(OH)2D3): blocked completely

C/C=C(/C)C(=O)O[C@H]1C(C)=C2[C@H]([C@@H]1OC(=O)CCCCCCC)[C@@](C)(OC(C)=O)C[C@H](OC(=O)CCC)[C@@]1(O)[C@H]2OC(=O)[C@@]1(C)O [thapsigargin]
stable plateau of calcium concentration versus baseline (human spermatozoa [1]; thapsigargin 4 μM, nine minutes after exposure): 3 fold | effect on calcium response to 1,25(OH)2D3 (human spermatozoa [1]; thapsigargin <1 μM): unable to abrogate

C=C1/C(=C\C=C2/CCC[C@]3(C)[C@@H]([C@H](C)/C=C/[C@@H](O)C4(C(=O)OCCCC)CC4)CC[C@@H]23)C[C@@H](O)C[C@@H]1O [ZK159222]
effect on calcium increase by 1,25(OH)2D3 (human spermatozoa [1]; Example 4, pre-treatment with 100 nM ZK159222 (FIG. 5)): unable to influence | effect of antagonist on calcium response to 1,25(OH)2D3 (human spermatozoa [1]; ZK159222 0.1-100 μM, data not shown): unable to abrogate or suppress

Source: US20140100419A1, “ACTIVE VITAMIN D OR ANALOGS THEREOF FOR USE IN IN VIVO OR IN VITRO FERTILIZATION” (priority 2011, published 2014)
